For 3 compounds, IC50 results are on record in BindingDB's records for doi:10.1016/j.bmcl.2021.127992 (Kyung Hee University, 2021).

The test concerns the target T1, Prostaglandin E synthase (Homo sapiens, UniProt O14684).
T1 sequence (O14684 whole entry): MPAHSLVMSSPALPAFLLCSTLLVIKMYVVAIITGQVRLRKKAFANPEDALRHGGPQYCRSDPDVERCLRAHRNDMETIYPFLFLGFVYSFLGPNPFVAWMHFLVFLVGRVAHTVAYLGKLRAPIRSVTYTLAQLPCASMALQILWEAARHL
As to the kind of experiment: Inhibition of mPGES-1 in human A549 cells assessed as reduction in IL-1beta stimulated […] production.
Regarding `O=C(Nc1ccc(OCCCCc2ccccc2)cc1)N(Cc1ccccc1)S(=O)(=O)c1ccc(Cl)cc1`, the IC50 – broadly, the concentration that inhibits the measured activity by half – stood at 1000 nM. For `O=C(Oc1ccc(OCc2ccccc2)cc1)N(Cc1ccccc1)S(=O)(=O)c1ccc(Cl)cc1`, the IC50 stood at 2000 nM. `O=C(Oc1ccc(OCc2ccccc2)cc1)N(Nc1ccccc1)S(=O)(=O)c1ccc(Cl)cc1`: the IC50 worked out at 250 nM.
